Tests used:
[1] = tested on: endogenous PGE2 levels in kidney tissue; assay: Renal PGE2 levels after intraperitoneal injection in mice (Example 1); type: in vivo
Procedure: […] Protein concentrations of supernatant were determined by BCA assay (ThermoFisher Scientific, Rockford, IL). The PGE2 level was measured using a PGE2 ELISA kit (R&D Systems, Minneapolis, MN) in triplicate. PGE2 levels were expressed as nanograms of PGE2 per milligram of protein. Renal function was assessed by determining the serum levels of blood urea nitrogen (BUN; Abcam), serum creatinine (Agilent 6410 LC-MS/MS, Agilent, Santa Clara, CA), lipocalin-2 (R&D Systems), and kidney injury molecule-1 (KIM-1; R&D Systems) after reperfusion for 24 h. Measurement of serum creatinine was by HPLC. Serum creatinine was assessed using an Agilent 6410 LC-MS/MS system coupled with an Agilent 1200 series HPLC system (Agilent). The sample preparation for serum creatinine was that 50 μL of serum samples were mixed with 100 μL of acetonitrile that contained creatinine-d3 as an internal standard (5 μg/mL). The mixture was centrifuged at 13,000 rpm for 10 min after vigorous vortex, and 1 μL of supernatant was then injected into the LC-MS/MS system. The chromatography separation was performed on a Hypersil GOLD C18 column (150×2.1 mm, 3 m, Thermo Scientific) using a mobile phase of 0.1% formic acid solution and acetonitrile [70:30 (vol/vol)]. The flow rate was 0.2 mL/min. […] The multiple-reaction monitoring mode using specific precursor/production transition was used for quantification. […]

[2] = tested on: mice with ischemic AKI (bilateral renal IRI); assay: Renal IRI model: proinflammatory cytokines and HMGB1; type: in vivo, C57/BL6 mice; settings: 24 h after renal IRI, vs IRI-vehicle mice
Procedure: Inflammatory cytokine mRNA and protein levels were measured by real-time PCR and ELISA. Kidney tissue and serum were harvested after reperfusion for 24 h. Total RNA was extracted from frozen kidney tissue using TRIzol reagent (ThermoFisher Scientific) according to the manufacturer's protocol. RNA was converted to cDNA using oligo-dT primers. IL-17, TNF-α, and IL-1b mRNA levels were determined by real-time PCR. Serum IL-17 (R&D Systems), TNF-α (R&D Systems), and IL-10 (R&D Systems) were measured using commercial ELISA kits according to the manufacturer's instructions.

[3] = tested on: mice with ischemic AKI (bilateral renal IRI); assay: Renal IRI model: cAMP, AMP and adenosine levels; type: in vivo, C57/BL6 mice
Procedure: After reperfusion for 24 h, kidney tissues were harvested, homogenized in 10 volumes of 0.1 M HCl, and centrifuged for 10 min at 12,000 rpm. cAMP levels in kidney tissues and serum were measured using a cAMP Complete ELISA kit (Enzo Life Science, Farmingdale, NY). AMP and adenosine in kidney tissue were assessed by Agilent 6410 LC-MS/MS. Serum adenosine was measured using an assay kit (Abnova, Walnut, CA).

[4] = tested on: mice with ischemic AKI (bilateral renal IRI); assay: Renal IRI model: PGE2 (EP1-EP4) and adenosine A2A receptor expression; type: in vivo, C57/BL6 mice
Procedure: PGE2 receptors (EP1, EP2, EP3, and EP4) and adenosineA2A receptor mRNA levels were deter-mined by real-time PCR. Their protein levels were determined by Western blot assay and immunofluorescence analysis.

[5] = tested on: contrast-induced acute kidney injury (CIAKI) mice; assay: CIAKI mouse model: renal function (serum creatinine, NGAL, KIM-1); type: in vivo, C57/BL6 mice
Procedure: Female mice were injected with 10 gI/kg of Visipaque (iodixanol) via the tail vein. […] For inhibition of the EP4s, mice were treated with 0.2 mg/kg/day of ONO-AE3-208 by subcutaneous injection for 14 days. Serum and kidney tissue were collected 48 h after the iodixanol injection.
Renal function was assessed by determining the serum levels of creatinine (Arbor Assays, Ann Arbor, MI, USA), NGAL (R&D Systems), and KIM-1 (R&D Systems) at 48 h after the iodixanol injection.

[6] = pretreatment, mRNA in kidney tissue

Q: For `CCCC[S+]([O-])c1sc2nc(-c3cccs3)cc(-c3ccccc3)c2c1N` (centres unmarked) [SW033291], which “endogenous renal PGE2 (peak)” value ([1]; 1 h after intraperitoneal 5 mg/kg) is on record?
A: tripling

Q: And the “renal PGE2” value ([1]; 3 h after intraperitoneal injection of 2.5 or 5 mg/kg)?
A: dose-dependent increase

Q: What about the “HMGB1 levels in kidney tissue” value [2] of the same molecule?
A: reduced

Q: What about the “induction of IL-10 (protein only)” value [2] of the same molecule?
A: blocked induction

Q: What about the “induction of IL-17” value [2] of the same molecule?
A: blocked induction

Q: What about the “induction of TNF-α” value [2] of the same molecule?
A: blocked induction

Q: And the “IRI-induced decrease of adenosine in the kidney” value ([3]; 24 h after IRI)?
A: reversed

Q: And the “AMP in kidney tissue” value ([3]; 24 h post-IRI)?
A: increased levels

Q: What about the serum adenosine ([3]; 24 h post-IRI) of the same molecule?
A: Increased

Q: What about the “renal cAMP” value ([3]; 24 h post-IRI, vs sham mice) of the same molecule?
A: elevated over sham mice

Q: What about the “adenosine A2A receptor” value ([4]; 24 h, vs sham and IRI mice) of the same molecule?
A: induced

Q: What about the “EP4 receptor mRNA levels” value ([4]; 24 h post-IRI) of the same molecule?
A: significantly increased

Q: What about the “levels of EP2 receptors” value ([4]; 24 h post-IRI) of the same molecule?
A: no effect

Q: What about the “levels of EP3 receptors” value ([4]; 24 h post-IRI) of the same molecule?
A: no effect

Q: And the EP4 receptor protein ([4]; 24 h post-IRI, vs vehicle-treated mice)?
A: more than twice as high

Q: And the “pre-IRI levels of A2A receptors” value [4, 6]?
A: increased

Q: And the “pre-IRI levels of EP4 receptors” value [4, 6]?
A: increased

Q: What about the “serum creatinine, absence or presence of ONO-AE3-208” value ([5]; CIAKI mice (FIG. 15E), SW033291 line = CM + SW033291, ONO-AE3-208 line = CM + ONO-AE3-208 + SW033291) of the same molecule?
A: 0.50 ± 0.10 mg/dL

Q: And the “serum NGAL, absence or presence of ONO-AE3-208” value ([5]; CIAKI mice (FIG. 15F), SW033291 line = CM + SW033291, ONO-AE3-208 line = CM + ONO-AE3-208 + SW033291)?
A: 140.41 ± 25.52 ng/mL

Q: And the “serum KIM-1, absence or presence of ONO-AE3-208” value ([5]; CIAKI mice (FIG. 15G), SW033291 line = CM + SW033291, ONO-AE3-208 line = CM + ONO-AE3-208 + SW033291)?
A: 0.09 ± 0.05 ng/mL

Q: What about the serum creatinine ([5]; CIAKI mice, CM + drug, 48 h after CM (FIG. 11C)) of the same molecule?
A: 1.10 ± 0.11 mg/dL

Q: What about the “serum NGAL” value ([5]; CIAKI mice, CM + drug, 48 h after CM (FIG. 11D)) of the same molecule?
A: 140.41 ± 25.52 ng/mL

Q: What about the “serum KIM-1” value ([5]; CIAKI mice, CM + drug, 48 h after CM (FIG. 11E)) of the same molecule?
A: 0.43 ± 0.30 ng/mL

Reference: patent publication US12616681B2, “Compositions and methods for treating renal injury” (priority 2019, dated 2026)
